{"source": "patent US7749496B2", "about": "“Neuronal regeneration” (Case Western Reserve University, priority 2001, dated 2010)", "assay_type_in_all_cases": "cell-based", "key": {"[1]": {"tested_on": "NG108-15 cells", "test": "Neurite crossing of laminin/aggrecan (CSPG) boundary after protein transduction", "conditions": "for neurite extension across laminin/CSPG boundary: vs controls", "from_the_text": "We developed a second model to observe the effects of substrate-bound GAGs or CSPGs on neurite extension. Briefly, alternating lanes of the CSPG aggrecan and laminin were created on 60 mm diameter tissue culture dishes using a modified version of the Bonhoeffer method. Thus, neurite extension of cells across laminin/CSPG boundaries could be observed in these coated tissue culture dishes. Such laminin/CSPG coated dishes were used for the experiments summarized in the following examples and in FIGS. 7-10.\nNG108-15 cells (available from ATCC, Manassas, Va.) were removed from culture flasks and resuspended in Neurobasal-A media (Invitrogen, Carlsbad, Calif.) supplemented with N-2, L-glutamine, and 1% penicillin/streptomycin. 2×10^4 NG108-15 cells were added to a laminin/CSPG coated dish as described in Example 8. After approximately 4 hours, the cells formed lanes adhering to the laminin lanes. The ability of the cells to migrate and/or extend processes across the laminin/CSPG boundary was then assessed following transduction of the cells with control proteins, with various Class I activator proteins, or with a Class 2 inhibitor protein.\nCells were transduced using the CHARIOT protein transduction system with any one of the following: GST control alone, activated Cdc42-GST, dominant negative Cdc42-GST, activated Rac1-GST, dominant negative Rac1-GST, activated RhoA-GST, or the RhoA inhibitor C3 transferase (Cytoskeleton, Denver, Colo.). The activated and dominant negative variants used for these experiments were as following: activated Cdc42=Q61L Cdc42, dominant negative Cdc42=T17N Cdc42, activated Rac1=Q61L Rac1, dominant negative Rac1=T17N […], activated RhoA=Q63 L RhoA. Following protein transduction, cells were placed in humidified incubators at 37° C., and 5% CO2 and were […] after 48 hours."}, "[2]": {"tested_on": "E9 chick DRG", "test": "Three-dimensional layered agarose gel, neurite crossing of gel interfaces", "conditions": "for percentage of DRG neurites that cross the interface between 2 layers: interface of 1% agarose and 2% agarose modified with chondroitin sulfate, compared to non-GAG agarose interface, FIG. 3", "source_text": "This three-dimensional system allows observation of neuronal cell behavior at gel interfaces. In this example, layer 1 is a control interface composed of 1% agarose, layer 2 contains the neuronal explant, in this case an explant of dorsal root ganglia (DRG) in 1% agarose, and layer 3 is 2% agarose containing chondroitin sulfate-B. The layer 1/layer 2 interface provides a control agarose/agarose interface, while the layer 2/layer 3 interface provides an agarose/CS-GAG rich agarose interface. The ability of neurites to cross the interface between layer 2/layer 3 can be measured.\nAgarose gels were made by dissolving SeaPrep agarose (FMC Corp) in pH 7.4 PBS. Agarose solutions were sterilized by p assing through a 0.45 u m filter, gelled and stored at 4° C. Prior to use, the gels were degelled at 65° C., cooled to 37° C., and gelled.\nFor construction of three dimensional system, agarose gels were layered in a rectangular culture dish. 1% liquid agarose was poured into the dish, and chilled to allow layer 1 to gel. After layer 1 had gelled, liquid agarose containing several E9 chick DRG were poured onto layer 1, and chilled to form layer 2. After layer 2 had gelled, 2% liquid agarose containing chondroitin sulfate-B was poured onto layer 2 and chilled to form layer 3.\nTo maintain the cells in this culture system, culture medium consisting of DMEM supplemented with 10% fetal bovine serum, 1% penicillin-streptomycin, and 50 ng/mL nerve growth factor was added to the top of the gel.\nThe ability of neuronal cells to extend processes across the interfaces was quantified by determining the percentage of neurites that successfully crossed the interface using light microscopy."}, "[3]": {"tested_on": "NG108 cells", "test": "Two dimensional coverslip with alternating stripes of chondroitin sulfate, crossing of short axis", "conditions": "protein delivered with Chariot protein transduction system; unmodified cells less than 10%; FIG. 5A", "from_the_text": "We developed a two-dimensional model to observe the effects of substrate-bound GAGs or CSPGs on neurite extension. Briefly, the surfaces of glass coverslips were modified using 3-aminopropyltriethoxysilane, which binds amines to the surface. Through a two-step covalent coupling procedure, chondroitin sulfate C(CS-C) was crosslinked to the amines on the surface of the coverslip. First, CS-C was linked to EDAC, a zero-length crosslinker, that reacts with amine groups. With the aid of the Bonhoeffer matrix the CS-C-EDAC solution was passed into the microchannels incubated at room temperature for 30 minutes and removed. This process was repeated three additional times with fresh CS-C-EDAC solution. The CS-C covalently couple to the amines on the modified coverslip via the EDAC.\nThe coverslips were sonicated for 5 minutes to remove any CS-C that was not covalently bound to the coverslip. The coverslips were sterilized in 70% ethanol, and 15,000 cells were seeded on top of the micropatterned area and incubated at 37° C., 5% CO2. The behavior of the seeded cells can now be examined in the presence or absence of agents which either influence the cells themselves (e.g., Class I activators, Class II inhibitors, etc.) or agents which alter the CS-C. […]"}, "[4]": {"conditions": "Chariot transduction, imaged after 48 hours, vs untransduced or GST alone, FIG. 7"}}, "data": [{"substance": "C3 transferase", "values": [{"measurement": "neurite extension across laminin/CSPG boundary", "setting": "[1]; 2 μg/mL, FIG. 10", "value": "statistically significant"}, {"measurement": "neurite extension across laminin/CSPG boundary", "setting": "[1]; 4 μg/mL, FIG. 10", "value": "statistically significant"}, {"measurement": "percentage of neurites that cross a laminin/aggrecan boundary", "setting": "[1]; [4]", "value": "statistically significant increase"}, {"measurement": "dose dependence of neurite crossing of laminin/aggrecan boundary", "setting": "[1]; various concentrations, in the presence of Chariot, FIG. 10", "value": "statistically significant and dose dependent increase"}]}, {"substance": "activated RhoA: Q63L RhoA constitutively active Rho family GTPase variant, GST protein", "values": [{"measurement": "percentage of neurites that cross a laminin/aggrecan boundary", "setting": "[1]; [4]", "value": "did not significantly promote"}]}, {"substance": "chondroitin-sulfate B", "values": [{"measurement": "percentage of DRG neurites that cross the interface between 2 layers", "setting": "[2]", "value": "statistically significant decrease"}, {"measurement": "percentage of DRG neurites that cross the interface between 2 layers", "setting": "[2]; listed as CS-GAG", "value": "significantly inhibited"}, {"measurement": "extension of neuronal processes at the layer 2/layer 3 interface", "setting": "[2]; layer 3 is 2% agarose modified with chondroitin sulfate B, FIG. 2C", "value": "inhibited"}]}, {"substance": "constitutively active Cdc42: Q61L mutation of human Cdc42 (SEQ ID NO: 2), constitutively active Rho family GTPase protein, delivered by Chariot protein transduction", "values": [{"measurement": "percentage of NG108 cells that cross the short axis of chondroitin sulfate GAG coverslip", "setting": "[3]", "value": "approximately 50%"}, {"measurement": "percentage of neurites that cross a laminin/aggrecan boundary", "setting": "[1]; 4 μg/mL, Chariot transduction, vs untransduced cells, FIG. 8", "value": "statistically significant increase"}, {"measurement": "dose dependence of neurite extension across laminin/CSPG boundary", "setting": "[1]; 1, 2, 3, 4 μg/mL, Chariot transduction, FIG. 8", "value": "dose dependent increase"}, {"measurement": "percentage of neurites that cross a laminin/aggrecan boundary", "setting": "[1]; [4]", "value": "statistically significant increase"}]}, {"substance": "dominant negative Cdc42: T17N Cdc42 dominant negative Rho family GTPase variant, GST protein", "values": [{"measurement": "percentage of neurites that cross a laminin/aggrecan boundary", "setting": "[1]; [4]", "value": "did not significantly promote"}]}]}
